Patent US20040003424A1, “Transgenic cardiomyocytes with controlled proliferation and differentiation” (Board of Regents, The University of Texas System, priority 2002, published 2004)
No end group written: not given here.

How the values were obtained:
Type in all cases: cell-based, mouse
NkL-TAg cells = assay: Induction of differentiation of NkL-TAg cells, sarcomeric α-actinin immunocytochemistry; details: for sarcomere formation as assessed by α-actinin immunocytochemistry: NkL-TAg cells prior to depletion of TAg; for induction of sarcomere formation: NkL-TAg cells after removal of TAg, in differentiation medium (5% horse serum, insulin, transferrin, selenium)
Procedure: (§1) Cell Culture. Cells were isolated from sub-endocardial tumor-like structures in the hearts of transgenic mice as previously described with some modifications (Paradis et al, 1996). Briefly, dissected tissues were minced and dissociated using an enzyme mix containing 0.2% […] (Worthington) and 0.6 mg/ml of pancreatin (Sigma). Cardiac cells derived from Nk-TAg and NkL-TAg mice were maintained in DMEM/F12 media supplemented with 100 IU/ml penicillin, 100 μg/ml streptomycin, 2 mM Lglutamine, and 10% fetal bovine serum (FBS) on plates coated with […] fibronectin and 0.1% 2 gelatin. Cloning cylinders were used to harvest cell clones. Cell growth curves were generated by plating 1.5×10^5 or 2×10^5 cells (as indicated) in growth medium onto 100 mm plates and counting total cell number every 24 hours for 5 days. Differentiation medium contains DMEM/F12 supplemented with 100 IU/ml penicillin, 100 μg/ml streptomycin, 2 mM L-glutamine, 5% heat inactivated horse serum, […], […] and 6.7 ng/ml sodium selenite.
Histochemical Analysis. Heart tissue was fixed in 10% phosphate-buffered formalin and stained with hematoxylin-eosin. Nk-TAg and NkL-TAg cells were cultured on coverslips and fixed for 10 minutes with either −20° C. methanol or 4% paraformaldehyde for immunohistochemistry. Blocking was performed by incubating fixed cells with 1.5% bovine serum albumin and 10% normal goat serum in PBS for 20 minutes. […] Secondary antibodies conjugated to either FITC or Texas Red (1:200, Vector Labs) were diluted in PBS and incubated for 30 minutes at room temperature. In some cases, nuclei were co-stained with DAPI (10 mg/ml) for 1 minute. Coverslips were mounted with Vectashield (Vector Laboratories) and fluorescence or confocal images were captured using Leica DMRXE or Zeiss 3.95 microscopes, respectively.
Viral Infection. Cells were infected with recombinant adenoviruses (Ad) at a multiplicity of infection (MOI) of 100 for 3 to 12 hrs. The medium was replaced with growth medium, and NkL-TAg cells were cultured for the indicated times before analyses. Recombinant adenoviruses were obtained from the following sources: Ad-Cre recombinase (Ad-Cre) was provided by Dr. Frank Graham (McMaster University) (Anton and Graham, 1995); GATA4 (Ad-GATA4), Nkx2.5 (Ad-Nkx2.5), MEK6 (Ad-MEK6), and GFP (Ad-GFP) were generated using the “Easy-Track” system as described (He et al., 1998); antisense HDAC4 and HDAC5 (Ad-HDAC4 or 5), expressing coding regions of HDAC genes in reverse orientation, were provided by Chun Zhang; MEF2C (Ad-MEF2C) was provided by Rebekka Nicol (HDAC 4/5 and MEF2c viruses were generated using pAC-CMV vector); constitutively active calcineurin (Ad-CnA), IGF-I receptor (Ad-IGFI), constitutively active CaMKI (Ad-CaMKI), β-galactosidase (Ad-LacZ) were generated by Dr. Robert Gerard (UT Southwestern) and were constructed using an in vitro Cre-lox recombination system (Aoki et al., 1999; Ng et al. 1999).

Nk-TAg cells [1] = assay: α-actinin immunohistochemistry and sarcomere assembly in Nk-TAg cells; details: for assembly of sarcomeres: hypertrophic agents added (20 nM ET-1, 100 mM [sic] PE, 1 mM [sic] angiotensin II)
Procedure: Histochemical Analysis. Heart tissue was fixed in 10% phosphate-buffered formalin and stained with hematoxylin-eosin. Nk-TAg and NkL-TAg cells were cultured on coverslips and fixed for 10 minutes with either −20° C. methanol or 4% paraformaldehyde for immunohistochemistry. Blocking was performed by incubating fixed cells with 1.5% bovine serum albumin and 10% normal goat serum in PBS for 20 minutes. Primary antibodies were incubated for 30-60 minutes in 1.5% bovine serum albumin in PBS as follows: monoclonal anti-myosin (smooth) (1:100, Sigma), polyclonal antimyosin (skeletal) (1:100, Sigma), monoclonal anti-α-smooth muscle actin (1:100, Sigma), monoclonal anti-skeletal myosin (slow) (1:100, Sigma), polyclonal anti-connexin 43 (1:100, Sigma), monoclonal anti-α-sarcomeric actin clone 5C5 (1:100, Sigma), monoclonal anti-desmin (1:100, Sigma), monoclonal anti-calponin (1:100, Sigma), monoclonal anti-α-actinin (sarcomeric) clone EA-53 (1:200, Sigma), monoclonal anti-SV40 T antigen (1:100, Santa Cruz). Secondary antibodies conjugated to either FITC or Texas Red (1:200, Vector Labs) were diluted in PBS and incubated for 30 minutes at room temperature. In some cases, nuclei were co-stained with DAPI (10 mg/ml) for 1 minute. Coverslips were mounted with Vectashield (Vector Laboratories) and fluorescence or confocal images were captured using Leica DMRXE or Zeiss 3.95 microscopes, respectively.
Drug treatment. Drugs were added into cell culture media as indicated at the following concentrations: 100 mM phenylephrine (PE), 10 mM norepinephrine (NE), 10 ng/ml recombinant human transforming growth factor-β1 (TGFβ1) (R&D Systems), 1 mM dynorphin-β (Peninsula Laboratories), 1 mM trans- or cis-retinoic acid (Sigma), 15 ng/ml bone morphogenetic protein (BMP)-2/4 (Genetics Institute, Cambridge, Mass.), 1 mM angiotensin II (R&D Systems), 20 nM endothelin-1 (ET-1) (R&D Systems), 100 ng/ml insulin-like growth factor I (IGF-I) (Roche), 5-azacytidine (Sigma), and 10 mg/ml mitomycin C (Sigma).

Nk-TAg cells [2] = assay: Proliferation of Nk-TAg cardiac cell lines; details: drug added to the growth medium; mitomycin C 10 mg/ml as printed
Procedure: as §1
Drug treatment. […]

Row | Molecule | sarcomere formation as assessed by α-actinin immunocytochemistry (NkL-TAg cells) | also measured
1 | Nc1ncn([C@@H]2O[C@H](CO)[C@@H](O)[C@H]2O)c(=O)n1 [5-azacytidine] | no effect | 
2 | NC[C@H](O)c1ccc(O)c(O)c1 [NE, norepinephrine] | no effect | induction of sarcomere formation (NkL-TAg cells): further induction of sarcomere formation in some cells
3 | CNC[C@H](O)c1cccc(O)c1 [PE, phenylephrine] | no effect | induction of sarcomere formation (NkL-TAg cells): further induction of sarcomere formation in some cells; assembly of sarcomeres (Nk-TAg cells [1]): did not further induce the assembly of sarcomeres
4 | Cn1c(=O)c2c(ncn2C)n(C)c1=O [caffeine] | no effect | 
5 | CC1=C(/C=C/C(C)=C/C=C/C(C)=C\C(=O)O)C(C)(C)CCC1 [cis-retinoic acid] | no effect | 
6 | C[C@H](CCC(=O)O)C[C@H](C)C[C@H](C)C(=O)/C=C(\O)[C@H](C)C[C@H](C)C/C=C/[C@@H](C)[C@@H](O)[C@@H](C)[C@@H](O)C[C@@H]1CC[C@@](C)([C@H]2CC[C@@](C)([C@@H](C)O)O2)O1 [ionomycin] | no effect | 
7 | CO[C@@]12[C@H](COC(N)=O)C3=C(C(=O)C(C)=C(N)C3=O)N1C[C@@H]1N[C@@H]12 [mitomycin C] |  | expression of α-actinin (Nk-TAg cells [1]; immunohistochemistry, in the cytoplasm as unassembled Z-lines, mitomycin C 10 mg/ml as printed): enhanced expression of α-actinin; proliferation of the Nk-TAg cells (Nk-TAg cells [2]): abated proliferation
8 | [Cl-].[K+] [potassium chloride] | no effect | 
9 | CC1=C(/C=C/C(C)=C/C=C/C(C)=C/C(=O)O)C(C)(C)CCC1 [trans-retinoic acid] | no effect | 
10 | IGF-I: insulin-like growth factor I (Roche) | no effect | 
11 | TGFb1: recombinant human transforming growth factor-β1 (R&D Systems) | no effect | 
12 | angiotensin II (DRVYIHPF; Angiotensin-2; UniProt P01019 25-32, looked up) |  | assembly of sarcomeres (Nk-TAg cells [1]): did not further induce the assembly of sarcomeres
13 | bFGF: basic fibroblast growth factor | no effect | 
14 | dynorphin-β | no effect | 
15 | endothelin-1 (CSCSSLMDKECVYFCHLDIIW; ends and bridges not checked; cysteine pairing not given here; UniProt P05305 53-73, looked up) [ET-1] |  | assembly of sarcomeres (Nk-TAg cells [1]): did not further induce the assembly of sarcomeres
